Reference: patent publication US9040717B2, “Pyrazole-amide compounds and pharmaceutical use thereof” (JAPAN TOBACCO INC., priority 2013, dated 2015)
pIC50: −log10 of the molar value.

Biological target: hERG current in hERG-transfected HEK293 cells (Homo sapiens (Human), UniProt Q12809)
Experiment: hERG whole cell patch clamp test
Type: cell-based
Settings: for pIC50: whole cell patch clamp
Description: Using human ether-a-go-go related gene (hERG)-transfected HEK293 cells (Cytomyx Limited), an influence on hERG current was examined according to the whole cell patch clamp technique. The hERG-transfected HEK293 cells were passaged using a CO2 incubator (BNA-111, TABAI ESPEC CORP.) under the set conditions of 37° C., 5% CO2, saturated humidity. Culture containers used were Collagen Type I Coated 75 cm^2 flask (4123-010, AGC TECHNO GLASS CO., Ltd.) and Collagen Type I Coated 35 mm culture dish (4000-010, AGC TECHNO GLASS CO., Ltd.). The culture medium used was E-MEM (Eagle Minimum Essential Medium (Earle's Salts, Nikken biomedical laboratory) added with 10% FCS (Fetal calf serum, BioWest, L.L.C.) and 1% MEM Non-Essential Amino Acids Solution (NEAA, Invitrogen Corporation). Geneticin for the selection of hERG gene expressing cells was added thereto to a concentration of 400 μg/mL. As the cells for the measurement, 3×10^4 hERG-transfected HEK293 cells were plated on a 35 mm culture dish 4 to 7 days before measurement of the hERG current. The culture dish produced for the measurement contained the above-mentioned culture medium without geneticin (Invitrogen Corporation).
The highest evaluation concentration of each compound was determined from the highest concentration at which precipitation was not found in the standard extracellular fluid (NaCl: 140 mmol/L, KCl: 2.5 mmol/L, MgCl2:2 mmol/L, CaCl2: 2 mmol/L, HEPES: 10 mmol/L, glucose: 10 mmol/L (adjusted to pH 7.4 with Tris-base)). As the application method, each solution to be applied was ejected from a Y-tube having a tip diameter of about 0.25 mm, which was adjacent (about 2 mm) to the cells, and applied to the cells. The ejection rate was about 0.4 mL/min.
The experiment was performed at room temperature under a phase contrast microscope. The 35 mm culture dish plated with the cells was set on a measurement apparatus, and the standard extracellular fluid was continuously applied to the cells from the Y-tube. A glass electrode for the measurement was filled with an intracellular fluid (Potassium Gluconate: 130 mmol/L, KCl: 20 mmol/L, MgCl2: 1 mmol/L, ATP-Mg: 5 mmol/L, EGTA: 3.5 mmol/L, HEPES: 10 mmol/L (adjusted to pH 7.2 with Tris-base)). A conventional whole cell patch clamp method was applied to the cells, and the maintenance electric potential was set to −80 mV. Under a fixed electric potential, the whole cell current was amplified by an amplifier for patch clamp (AXOPATCH-200B, Axon Instruments, Inc.), and the data was loaded into a computer (IMC-P642400, Intermedical Co., Ltd.) using a data acquisition analysis software (pCLAMP 9.2, Axon Instruments, Inc.).
The measurement of the hERG current was performed in the following two steps. In both cases, the hERG current was initiated by giving a command potential (maintenance electric potential −80 mV, prepulse +20 mV, 1.5 sec, test-pulse −50 mV, 1.5 sec).
Step (1): The above-mentioned command potential was given at 0.1 Hz for 2 min.
Step (2): The above-mentioned command potential was subjected to P/3 subtraction of pCLAMP 9.2 to remove leak current. This was repeated three times and an average thereof was taken as hERG current.
Subsequent to step (1), Step (2) was performed (about 3 min), and the maximum tail current obtained by applying a test-pulse to the hERG current obtained by the method of step (2) was taken as hERG current value. Hereafter, the operations of (1) and (2) were alternately repeated until completion of the experiment and the hERG current value was measured.
Stable hERG current value was recorded three times (about 10 min), and the standard extracellular fluid was instantaneously exchanged with each application fluid. The hERG current value was measured three times (about 10 min) in the same manner during perfusion of the application fluid, and the current value obtained by the 3rd measurement was taken as hERG current value after perfusion of the application fluid. […]

Chain of hERG current in hERG-transfected HEK293 cells (Q12809 whole entry): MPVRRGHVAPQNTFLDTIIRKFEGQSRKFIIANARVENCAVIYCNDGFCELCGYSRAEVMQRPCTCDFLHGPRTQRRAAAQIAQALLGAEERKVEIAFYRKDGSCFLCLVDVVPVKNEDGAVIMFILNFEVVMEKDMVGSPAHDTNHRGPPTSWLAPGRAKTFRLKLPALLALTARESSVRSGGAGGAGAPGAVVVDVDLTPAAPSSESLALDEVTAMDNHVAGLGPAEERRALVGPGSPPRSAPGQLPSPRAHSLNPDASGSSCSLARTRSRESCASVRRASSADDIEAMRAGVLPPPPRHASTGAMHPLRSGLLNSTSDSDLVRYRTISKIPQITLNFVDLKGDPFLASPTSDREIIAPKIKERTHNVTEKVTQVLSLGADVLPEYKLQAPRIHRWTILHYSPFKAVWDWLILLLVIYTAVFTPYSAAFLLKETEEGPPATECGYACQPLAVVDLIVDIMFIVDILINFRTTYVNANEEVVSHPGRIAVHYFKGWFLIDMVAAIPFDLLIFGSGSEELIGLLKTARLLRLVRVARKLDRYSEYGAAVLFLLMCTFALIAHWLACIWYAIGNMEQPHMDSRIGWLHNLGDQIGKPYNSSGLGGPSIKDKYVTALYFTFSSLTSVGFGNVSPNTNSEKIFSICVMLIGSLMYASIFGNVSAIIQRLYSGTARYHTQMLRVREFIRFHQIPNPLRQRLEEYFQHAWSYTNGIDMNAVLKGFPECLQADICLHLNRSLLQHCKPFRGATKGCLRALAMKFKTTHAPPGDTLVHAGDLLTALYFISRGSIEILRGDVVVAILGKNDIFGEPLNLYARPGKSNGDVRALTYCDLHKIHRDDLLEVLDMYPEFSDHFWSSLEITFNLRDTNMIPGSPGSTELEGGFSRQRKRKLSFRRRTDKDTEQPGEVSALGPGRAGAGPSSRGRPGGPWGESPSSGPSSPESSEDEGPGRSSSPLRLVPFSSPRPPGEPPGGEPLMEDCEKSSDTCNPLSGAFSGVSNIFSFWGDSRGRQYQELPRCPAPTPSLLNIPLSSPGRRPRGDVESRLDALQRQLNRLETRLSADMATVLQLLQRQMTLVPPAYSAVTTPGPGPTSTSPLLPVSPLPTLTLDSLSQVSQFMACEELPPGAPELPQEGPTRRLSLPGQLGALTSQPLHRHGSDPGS

SMILES | hERG current Inhibition rate (%) (30 μmol/L) | pIC50 | hERG current Inhibition rate (%) (10 μmol/L) | hERG current Inhibition rate (%) (1 μmol/L)
CC(C)(O)CCOc1cc(-c2cnn(C(C)(C)C(N)=O)c2)c2c(c1)[C@@](O)(C(F)(F)F)c1ccccc1-2 [Compound (2), 2-{4-[(9R)-9-hydroxy-2-(3-hydroxy-3-methylbutyloxy)-9-(trifluoromethyl)-9H-fluoren-4-yl]-1H-pyrazol-1-yl}-2-methylpropanamide] | 24.4% | < 4.52 |  | 
CC(C)(O)CCCOc1cc(-c2cnn(C(C)(C)C(N)=O)c2)c2c(c1)[C@@](O)(C(F)(F)F)c1ccccc1-2 [Compound (3), 2-{4-[(9R)-9-hydroxy-2-(4-hydroxy-4-methylpentyloxy)-9-(trifluoromethyl)-9H-fluoren-4-yl]-1H-pyrazol-1-yl}-2-methylpropanamide] | 27.3% | < 4.52 |  | 
NC(=O)Cn1cc(-c2cc(OCCC34CC5CC(CC(O)(C5)C3)C4)cc3c2-c2ccccc2[C@]3(O)C(F)(F)F)cn1 [Compound (A), 2-(4-{(9R)-9-Hydroxy-2-[2-(3-hydroxyadamantan-1-yl)ethoxy]-9-(trifluoromethyl)-9H-fluoren-4-yl}-1H-pyrazol-1-yl)acetamide] |  |  | 11.8% | 
Cn1cc(-c2cc(OCC(C)(C)O)cc3c2-c2ccccc2[C@]3(O)C(F)(F)F)cn1 [Compound (B), (9R)-2-(2-Hydroxy-2-methylpropoxy)-4-(1-methyl-1H-pyrazol-4-yl)-9-(trifluoromethyl)-9H-fluoren-9-ol] |  |  | 72.9% | 17.4%
